# Measured values: ChEMBL document CHEMBL1155809, “Design, synthesis, and antihepatocellular carcinoma activity of nitric oxide releasing derivatives of oleanolic acid” (J Med Chem, 2008)
# The source made the active and inactive calls. No cut-off for these calls is given here.
# Key:
# HepG2 [1] = experiment: Cytotoxicity against human HepG2 cells assessed as cell death after 24 hrs by lactate dehydrogenase release assay; format: functional, cell-based
# Hep 3B2 [2] = experiment: Cytotoxicity against human Hep3B cells assessed as cell death after 24 hrs by lactate dehydrogenase release assay; format: functional, cell-based
# Hep 3B2 [3] = experiment: Cytotoxicity against human Hep3B cells assessed as levels of nitric oxide production at 100 uM after 30 to 300 mins by colorimetric assay; format: functional, cell-based
# HepG2 [4] = experiment: Cytotoxicity against human HepG2 cells assessed as cell death at 0.001 uM after 24 hrs by lactate dehydrogenase release assay; format: functional
# HepG2 [5] = experiment: Cytotoxicity against human HepG2 cells assessed as cell death at 0.01 uM after 24 hrs by lactate dehydrogenase release assay; format: functional
# [6] = Cytotoxicity against human Hep3B cells assessed as cell death at 0.1 uM after 24 hrs by lactate dehydrogenase release assay; format: functional, Hep 3B2
# [7] = Cytotoxicity against human Hep3B cells assessed as cell death at 1 uM after 24 hrs by lactate dehydrogenase release assay; format: functional, Hep 3B2
# MCF7 [8] = experiment: Cytotoxicity against human MCF7 cells assessed as cell death by lactate dehydrogenase release assay; format: functional, cell-based
# PC-3 [9] = experiment: Cytotoxicity against human PC3 cells assessed as cell death by lactate dehydrogenase release assay; format: functional, cell-based
# PC-3 [10] = experiment: Cytotoxicity against human PC3 cells assessed as levels of nitric oxide production at 100 uM after 30 to 300 mins by colorimetric assay; format: functional, cell-based
# HepG2 [11] = experiment: Cytotoxicity against human HepG2 cells assessed as cell death at 1 uM after 24 hrs by lactate dehydrogenase release assay; format: functional
# [12] = Cytotoxicity against human Hep3B cells assessed as cell death at 0.01 uM after 24 hrs by lactate dehydrogenase release assay; format: functional, Hep 3B2
# HepG2 [13] = experiment: Cytotoxicity against human HepG2 cells assessed as levels of nitric oxide production at 100 uM after 30 to 300 mins by colorimetric assay; format: functional, cell-based
# HepG2 [14] = experiment: Cytotoxicity against human HepG2 cells assessed as cell death at 0.1 uM after 24 hrs by lactate dehydrogenase release assay; format: functional
# HEK293 [15] = experiment: Cytotoxicity against human HEK293 cells assessed as levels of nitric oxide production at 100 uM after 30 to 300 mins by colorimetric assay; format: functional, cell-based
# HeLa [16] = experiment: Cytotoxicity against human HeLa cells assessed as cell death by lactate dehydrogenase release assay; format: functional, cell-based
# [17] = Cytotoxicity against human Hep3B cells assessed as cell death at 0.001 uM after 24 hrs by lactate dehydrogenase release assay; format: functional, Hep 3B2
# HEK293 [18] = experiment: Cytotoxicity against HEK293 cells assessed as cell death by lactate dehydrogenase release assay; format: functional, cell-based; settings: Homo sapiens
# MCF7 [19] = experiment: Cytotoxicity against human MCF7 cells assessed as levels of nitric oxide production at 100 uM after 30 to 300 mins by colorimetric assay; format: functional, cell-based
# HeLa [20] = experiment: Cytotoxicity against human HeLa cells assessed as levels of nitric oxide production at 100 uM after 30 to 300 mins by colorimetric assay; format: functional, cell-based
SMILES,Activity (HepG2 [1]),Activity (Hep 3B2 [2]),further results
CC1(C)CC[C@]2(C(=O)O)CC[C@]3(C)C(=CC[C@@H]4[C@@]5(C)CC[C@H](OC(=O)CCC(=O)Oc6cccc(OCc7c(-c8ccccc8)no[n+]7[O-])c6)C(C)(C)[C@@H]5CC[C@]43C)[C@@H]2C1,inactive,inactive,
CC1(C)CC[C@]2(C(=O)OCc3c(-c4ccccc4)no[n+]3[O-])CC[C@]3(C)C(=CC[C@@H]4[C@@]5(C)CC[C@H](O)C(C)(C)[C@@H]5CC[C@]43C)[C@@H]2C1,inactive,inactive,
CCOC(=O)[C@]12CCC(C)(C)C[C@H]1C1=CC[C@@H]3[C@@]4(C)CC[C@H](OC(=O)CCC(=O)OCc5cccc(OCc6c(-c7ccccc7)no[n+]6[O-])c5)C(C)(C)[C@@H]4CC[C@@]3(C)[C@]1(C)CC2,inactive,inactive,
CC1(C)CC[C@]2(C(=O)OCc3c(-c4ccccc4)no[n+]3[O-])CC[C@]3(C)C(=CC[C@@H]4[C@@]5(C)CC[C@H](OC(=O)C(F)(F)F)C(C)(C)[C@@H]5CC[C@]43C)[C@@H]2C1,inactive,inactive,
CC1(C)CC[C@]2(C(=O)O)CC[C@]3(C)C(=CC[C@@H]4[C@@]5(C)CC[C@H](OC(=O)CCC(=O)NCCOc6no[n+]([O-])c6S(=O)(=O)c6ccccc6)C(C)(C)[C@@H]5CC[C@]43C)[C@@H]2C1,,,Activity (Hep 3B2 [3]): Active; Activity (HepG2 [4]): 0%; Activity (HepG2 [5]): 8.51%; Activity [6]: 16.34%; Activity [7]: 66.21%; Activity (MCF7 [8]): inactive; Activity (PC-3 [9]): inactive; Activity (PC-3 [10]): inactive; Activity (HepG2 [11]): 74.53%; Activity [12]: 5.26%; Activity (HepG2 [13]): Active; Activity (HepG2 [14]): 13.01%; Activity (HEK293 [15]): inactive; Activity (HeLa [16]): inactive; Activity [17]: 0%; Activity (HEK293 [18]): inactive; Activity (MCF7 [19]): inactive; Activity (HeLa [20]): inactive
CC1(C)CC[C@]2(C(=O)OCCOCCOc3no[n+]([O-])c3S(=O)(=O)c3ccccc3)CC[C@]3(C)C(=CC[C@@H]4[C@@]5(C)CC[C@H](OC(=O)C(F)(F)F)C(C)(C)[C@@H]5CC[C@]43C)[C@@H]2C1,inactive,inactive,
CC1(C)CC[C@]2(C(=O)OCc3ccc(OCc4c(-c5ccccc5)no[n+]4[O-])cc3)CC[C@]3(C)C(=CC[C@@H]4[C@@]5(C)CC[C@H](OC(=O)C(F)(F)F)C(C)(C)[C@@H]5CC[C@]43C)[C@@H]2C1,inactive,inactive,
CCOC(=O)[C@]12CCC(C)(C)C[C@H]1C1=CC[C@@H]3[C@@]4(C)CC[C@H](OC(=O)CCC(=O)OC(C)CCOc5no[n+]([O-])c5S(=O)(=O)c5ccccc5)C(C)(C)[C@@H]4CC[C@@]3(C)[C@]1(C)CC2 (some centres not stated),inactive,inactive,
CC(CCOc1no[n+]([O-])c1S(=O)(=O)c1ccccc1)OC(=O)[C@]12CCC(C)(C)C[C@H]1C1=CC[C@@H]3[C@@]4(C)CC[C@H](OC(=O)C(F)(F)F)C(C)(C)[C@@H]4CC[C@@]3(C)[C@]1(C)CC2 (some centres not stated),,,Activity (Hep 3B2 [3]): Active; Activity (HepG2 [4]): 0%; Activity (HepG2 [5]): 0%; Activity [6]: 0%; Activity [7]: 0%; Activity (MCF7 [8]): inactive; Activity (PC-3 [9]): inactive; Activity (PC-3 [10]): inactive; Activity (HepG2 [11]): 0%; Activity [12]: 0%; Activity (HepG2 [13]): Active; Activity (HepG2 [14]): 0%; Activity (HEK293 [15]): inactive; Activity (HeLa [16]): inactive; Activity [17]: 0%; Activity (HEK293 [18]): inactive; Activity (MCF7 [19]): inactive; Activity (HeLa [20]): inactive
CC1(C)CC[C@]2(C(=O)OCc3ccccc3)CC[C@]3(C)C(=CC[C@@H]4[C@@]5(C)CC[C@H](OC(=O)CCC(=O)OCc6ccc(Oc7no[n+]([O-])c7S(=O)(=O)c7ccccc7)cc6)C(C)(C)[C@@H]5CC[C@]43C)[C@@H]2C1,inactive,inactive,
CC1(C)CC[C@]2(C(=O)OCc3ccccc3)CC[C@]3(C)C(=CC[C@@H]4[C@@]5(C)CC[C@H](OC(=O)CCC(=O)OCc6cccc(Oc7no[n+]([O-])c7S(=O)(=O)c7ccccc7)c6)C(C)(C)[C@@H]5CC[C@]43C)[C@@H]2C1,inactive,inactive,
CC1(C)CC[C@]2(C(=O)OCC#CCOc3no[n+]([O-])c3S(=O)(=O)c3ccccc3)CC[C@]3(C)C(=CC[C@@H]4[C@@]5(C)CC[C@H](OC(=O)C(F)(F)F)C(C)(C)[C@@H]5CC[C@]43C)[C@@H]2C1,inactive,inactive,
CC1(C)CC[C@]2(C(=O)O)CC[C@]3(C)C(=CC[C@@H]4[C@@]5(C)CC[C@H](OC(=O)CCC(=O)OCc6ccc(Oc7no[n+]([O-])c7S(=O)(=O)c7ccccc7)cc6)C(C)(C)[C@@H]5CC[C@]43C)[C@@H]2C1,inactive,inactive,
CC1(C)CC[C@]2(C(=O)OCc3ccccc3)CC[C@]3(C)C(=CC[C@@H]4[C@@]5(C)CC[C@H](OC(=O)CCC(=O)OCc6c(-c7ccccc7)no[n+]6[O-])C(C)(C)[C@@H]5CC[C@]43C)[C@@H]2C1,inactive,inactive,
CC1(C)CC[C@]2(C(=O)OCc3cccc(OCc4c(-c5ccccc5)no[n+]4[O-])c3)CC[C@]3(C)C(=CC[C@@H]4[C@@]5(C)CC[C@H](O)C(C)(C)[C@@H]5CC[C@]43C)[C@@H]2C1,inactive,inactive,
CC1(C)CC[C@]2(C(=O)OCCCCOc3no[n+]([O-])c3S(=O)(=O)c3ccccc3)CC[C@]3(C)C(=CC[C@@H]4[C@@]5(C)CC[C@H](OC(=O)C(F)(F)F)C(C)(C)[C@@H]5CC[C@]43C)[C@@H]2C1,inactive,inactive,
CC1(C)CC[C@]2(C(=O)OCc3ccc(Oc4no[n+]([O-])c4S(=O)(=O)c4ccccc4)cc3)CC[C@]3(C)C(=CC[C@@H]4[C@@]5(C)CC[C@H](OC(=O)C(F)(F)F)C(C)(C)[C@@H]5CC[C@]43C)[C@@H]2C1,inactive,inactive,
CCOC(=O)[C@]12CCC(C)(C)C[C@H]1C1=CC[C@@H]3[C@@]4(C)CC[C@H](OC(=O)CCC(=O)OCc5ccc(OCc6c(-c7ccccc7)no[n+]6[O-])cc5)C(C)(C)[C@@H]4CC[C@@]3(C)[C@]1(C)CC2,inactive,inactive,
CC1(C)CC[C@]2(C(=O)OCc3ccccc3)CC[C@]3(C)C(=CC[C@@H]4[C@@]5(C)CC[C@H](OC(=O)CCC(=O)OCCCCOc6no[n+]([O-])c6S(=O)(=O)c6ccccc6)C(C)(C)[C@@H]5CC[C@]43C)[C@@H]2C1,inactive,inactive,
CCOC(=O)[C@]12CCC(C)(C)C[C@H]1C1=CC[C@@H]3[C@@]4(C)CC[C@H](OC(=O)CCC(=O)OCCOCCOc5no[n+]([O-])c5S(=O)(=O)c5ccccc5)C(C)(C)[C@@H]4CC[C@@]3(C)[C@]1(C)CC2,inactive,inactive,
CC1(C)CC[C@]2(C(=O)O)CC[C@]3(C)C(=CC[C@@H]4[C@@]5(C)CC[C@H](OC(=O)CCC(=O)OCc6cccc(OCc7c(-c8ccccc8)no[n+]7[O-])c6)C(C)(C)[C@@H]5CC[C@]43C)[C@@H]2C1,inactive,inactive,
CC1(C)CC[C@]2(C(=O)OCc3cccc(OCc4c(-c5ccccc5)no[n+]4[O-])c3)CC[C@]3(C)C(=CC[C@@H]4[C@@]5(C)CC[C@H](OC(=O)C(F)(F)F)C(C)(C)[C@@H]5CC[C@]43C)[C@@H]2C1,inactive,inactive,
CC1(C)CC[C@]2(C(=O)O)CC[C@]3(C)C(=CC[C@@H]4[C@@]5(C)CC[C@H](OC(=O)CCC(=O)OCc6ccc(OCc7c(-c8ccccc8)no[n+]7[O-])cc6)C(C)(C)[C@@H]5CC[C@]43C)[C@@H]2C1,inactive,inactive,
CC(CCOc1no[n+]([O-])c1S(=O)(=O)c1ccccc1)OC(=O)CCC(=O)O[C@H]1CC[C@]2(C)[C@H]3CC=C4[C@@H]5CC(C)(C)CC[C@]5(C(=O)OCc5ccccc5)CC[C@@]4(C)[C@]3(C)CC[C@H]2C1(C)C (some centres not stated),inactive,inactive,
CC1(C)CC[C@]2(C(=O)OCCCCOc3no[n+]([O-])c3S(=O)(=O)c3ccccc3)CC[C@]3(C)C(=CC[C@@H]4[C@@]5(C)CC[C@H](O)C(C)(C)[C@@H]5CC[C@]43C)[C@@H]2C1,inactive,inactive,
